Reference: US8263776B2, “Inhibitors of c-Met protein kinase” (Vertex Pharmaceuticals Incorporated, priority 2009, dated 2012)

Key:
PDE3A = target: T1, PDE3A (Homo sapiens, UniProt Q14432); test: Inhibition of PDE3 (mobility-shift assay, LabChip 3000); assay type: biochemical; settings: for IC50: PDE3A, iFL-cAMP substrate, 40 minute incubation; for activity against PDE3 compared with the respective enantiomer: statement in words in the summary
T1 construct: purchased BPS Bioscience 60030
Text: Phosphodiesterase-3 (PDE3) is one of a family of phosphodiesterases responsible for the regulation of cyclic nucleotide second messengers. PDE3 enzymes are involved in regulation of cardiac and vascular smooth muscle contractility. Agents that inhibit PDE3 were originally investigated for the treatment of heart failure but have unwanted arrhythmic side effects. See Dart R. C., Medical Toxicology, Edition 3, page 708; Lippincott 2004.
Compounds of formula I were screened for their ability to inhibit PDE3 in a mobility-shift assay that quantitates the conversion of a flourescent analog of cyclic AMP to a flourescent analog of AMP using a LabChip 3000 (Caliper Life Sciences, Hopkinton, Mass.). Accordingly, a 0.6 μL aliquot of the test compound dissolved in DMSO was placed in a well of a 384-well plate, followed by the addition of a 15 μL aliquot of 200 ng/mL PDE3A (BPS Bioscience, San Diego, Calif., Catalog No. 60030) in 50 mM HEPES buffer at pH 7.5, containing 5 mM MgCl2 and 0.001% Brij-35 (Buffer A). The enzyme and compound were incubated at room temperature for 15 minutes, followed by the addition of a 15 μL aliquot of 2 μM iFL-cAMP (Caliper Life Sciences, Catalog No. 760444) in Buffer A. Following a 40 minute incubation at room temperature, the reaction was quenched by the addition of a 45 μL aliquot of 100 mM HEPES buffer at pH 7.5, containing 30 mM EDTA, 0.015% Brij-35, and 0.1% CR-3 (Caliper Life Sciences). […] Percent conversion was determined using HTS Well Analyzer software (Caliper Life Sciences, v5, SP2). IC50 values were determined using non-linear regression with Prism (v5.0a, GraphPad Software, Inc., La Jolla, Calif.).

[1] = tested on: Snu5-AP1-Luc-Pest cells (c-Met); test: Inhibition of c-Met activity in Snu5 gastric carcinoma cells (Snu5-AP1-Luc-Pest luciferase reporter); assay type: cell-based; settings: Homo sapiens, SNU-5, 6 hours incubation, luciferase signal
Text: Compounds of formula I were also screened for their ability to inhibit the Luciferase-induced signal in an engineered Snu5 cell line. Snu5 [obtained from American Type Culture Collection (Catalog number CRL-5973)] is a human gastric carcinoma known to overexpress c-Met, which is constitutively active. The cell line was transduced with the retrovirus, pCLPCX, which contains a genetic construct consisting of 6×AP 1 promoter response elements and a luciferase gene having a C-terminal PEST sequence (proteolytic signal from mouse ornithine decarboxylase, which reduces the half-life of the luciferase). The constitutively active c-Met activates cellular pathways (principally MAP kinase), resulting in AP-1-induced transcription of luciferase-PEST and translation into the final product, the activity of which is quantifiable as a chemiluminescent readout upon the addition of luciferin (Steady-Glo from Promega). Residual luminescence is strongly correlated to the inhibition of c-Met. A stable cell line was obtained by selecting the new cell line (Snu5-AP1-Luc-Pest) with puromycin. The cells were grown in complete media [Iscove's media (Invitrogen) containing 10% fetal bovine serum (FBS, Hyclone) and penicillin/gentamycin (Invitrogen)]. Compounds of the invention were dissolved in DMSO to make 10 mM initial stock solutions. Serial dilutions in DMSO were then made and transferred to complete medium to make a 10× solution. The Snu5-AP1-Luc-Pest cells were counted and diluted to 200,000-cells/mL solution. The cells (90 μL) were added to each well in a 96-well black with clear bottom plate (Costar). Then 10 μL of the 10× compound solution was added to the cells in triplicate. The plates were incubated in a 37° C./5% CO2 incubator. After 6 hours, 50 μL of the Steady-Glo reagent (Promega) was added to each well and placed on a plate shaker for 5 minutes to ensure that the cells were completely lysed. The plate was read on a 1450 Microbeta Liquid Scintillation and Luminescence Counter (Perkin-Elmer). The IC50 values, shown in Table 2, were calculated using a 4-parameter fit using the graphing software Prism (GraphPad).

c-Met = c-Met (Homo sapiens, UniProt P08581); test: c-Met kinase inhibition assay (radiometric, 33P-ATP, polyE4Y substrate); assay type: biochemical; settings: 0.5 nM c-Met, 35 μM ATP, competitive tight-binding fit
c-Met, sequence (P08581 25-1390): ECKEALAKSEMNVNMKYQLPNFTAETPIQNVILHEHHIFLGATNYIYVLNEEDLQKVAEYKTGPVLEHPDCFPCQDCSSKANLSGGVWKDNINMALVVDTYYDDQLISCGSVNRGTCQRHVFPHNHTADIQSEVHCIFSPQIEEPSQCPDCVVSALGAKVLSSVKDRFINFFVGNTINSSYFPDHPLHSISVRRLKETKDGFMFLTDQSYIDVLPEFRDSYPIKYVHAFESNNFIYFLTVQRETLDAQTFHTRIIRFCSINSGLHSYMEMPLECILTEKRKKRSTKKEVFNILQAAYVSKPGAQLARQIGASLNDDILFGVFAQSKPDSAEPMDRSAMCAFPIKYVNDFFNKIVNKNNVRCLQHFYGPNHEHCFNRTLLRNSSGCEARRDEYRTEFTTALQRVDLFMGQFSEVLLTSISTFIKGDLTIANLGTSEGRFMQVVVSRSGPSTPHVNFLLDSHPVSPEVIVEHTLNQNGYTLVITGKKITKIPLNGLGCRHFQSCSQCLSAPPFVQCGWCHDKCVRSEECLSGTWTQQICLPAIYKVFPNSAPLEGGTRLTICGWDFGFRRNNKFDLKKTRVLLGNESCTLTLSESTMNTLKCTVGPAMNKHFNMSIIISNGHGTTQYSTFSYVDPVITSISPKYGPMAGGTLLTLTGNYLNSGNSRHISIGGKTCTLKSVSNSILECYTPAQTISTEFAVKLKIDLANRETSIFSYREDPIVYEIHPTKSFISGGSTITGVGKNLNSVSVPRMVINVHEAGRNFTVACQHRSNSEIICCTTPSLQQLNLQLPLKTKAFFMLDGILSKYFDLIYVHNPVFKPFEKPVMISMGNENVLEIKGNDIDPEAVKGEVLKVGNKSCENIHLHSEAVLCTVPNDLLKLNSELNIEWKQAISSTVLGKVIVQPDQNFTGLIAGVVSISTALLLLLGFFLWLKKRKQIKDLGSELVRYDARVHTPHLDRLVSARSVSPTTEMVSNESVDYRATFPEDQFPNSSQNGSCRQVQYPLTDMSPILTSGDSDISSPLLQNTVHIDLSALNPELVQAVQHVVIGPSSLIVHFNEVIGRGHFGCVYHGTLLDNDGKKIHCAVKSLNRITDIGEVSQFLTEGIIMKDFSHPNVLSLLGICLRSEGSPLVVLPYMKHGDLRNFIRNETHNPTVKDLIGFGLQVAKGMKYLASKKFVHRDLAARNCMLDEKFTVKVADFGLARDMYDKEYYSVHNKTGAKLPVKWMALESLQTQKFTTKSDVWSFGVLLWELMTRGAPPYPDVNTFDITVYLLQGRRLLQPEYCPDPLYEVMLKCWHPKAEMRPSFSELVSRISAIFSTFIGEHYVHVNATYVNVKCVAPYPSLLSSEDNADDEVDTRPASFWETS
Protocol: The compounds of the invention were screened for their ability to inhibit c-Met kinase using a standard radiometric assay. Briefly, in this kinase assay the transfer of the terminal ^33P-phosphate in ^33P-ATP to substrate polyE4Y is interrogated. The assay was carried out in 96-well plates to a final volume of 100 μL per well containing 0.5 nM c-Met, 100 mM HEPES (pH 7.5), 10 mM MgCl2, 25 mM NaCl, 0.01% BSA, 1 mM DTT, 0.5 mg/mL polyE4Y, and 35 μM ATP. Accordingly, compounds of the invention were dissolved in DMSO to make 10 mM initial stock solutions. Serial dilutions in DMSO were then made to obtain the final solutions for the assay. A 1.5 μL aliquot of DMSO or inhibitor in DMSO was added to each well, followed by the addition of ^33P-ATP, and finally the addition of c-Met and polyE4Y (obtained from Sigma). After 20 min, the reaction was quenched with 50 μL of 30% trichloroacetic acid (TCA) containing 4 mM ATP. The reaction mixture was transferred to the 0.66 mm GF filter plates (Corning) and washed three times with 5% TCA. Following the addition of 50 μL of Ultimate Gold™ high efficiency scintillant (Packard Bioscience), the samples were counted in a Packard TopCount NXT Microplate Scintillation and Luminescence Counter (Packard BioScience). The Ki values, shown in Table 2, were calculated using Microsoft Excel Solver macros to fit the data to the kinetic model for competitive tight-binding inhibition.

T1 sequence (Q14432 669-1141 limits assumed): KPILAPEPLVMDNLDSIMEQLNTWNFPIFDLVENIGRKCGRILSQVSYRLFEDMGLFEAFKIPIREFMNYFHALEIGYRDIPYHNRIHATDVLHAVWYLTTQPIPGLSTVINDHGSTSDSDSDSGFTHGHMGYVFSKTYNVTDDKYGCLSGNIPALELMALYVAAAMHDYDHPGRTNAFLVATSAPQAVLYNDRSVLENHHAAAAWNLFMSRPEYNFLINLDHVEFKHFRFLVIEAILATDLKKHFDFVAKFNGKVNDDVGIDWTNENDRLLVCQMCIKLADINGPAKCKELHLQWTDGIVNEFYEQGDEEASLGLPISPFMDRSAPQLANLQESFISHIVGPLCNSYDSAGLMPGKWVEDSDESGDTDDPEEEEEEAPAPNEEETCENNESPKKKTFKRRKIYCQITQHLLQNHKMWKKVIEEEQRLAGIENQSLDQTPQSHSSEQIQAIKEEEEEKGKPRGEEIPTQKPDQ

Compound	IC50 (PDE3A) [nM]	activity against PDE3 compared with the respective enantiomer (PDE3A)	IC50 [1] [nM]	Ki (c-Met) [nM]
C[C@H](c1ccc2ncccc2c1)c1nnc2sc(-c3cnn(C)c3)nn12 [Compound 1, 6-((R)-1-(6-(1-methyl-1H-pyrazol-4-yl)-[1,2,4]triazolo[3,4-b][1,3,4]thiadiazol-3-yl)ethyl)quinoline]	6600	surprisingly less active against PDE3 than their respective enantiomers	< 100	< 300
C[C@@H](c1ccc2ncccc2c1)c1nnc2sc(-c3cnn(C)c3)nn12 [Compound 1a]	760		< 100	< 300
C[C@H](c1c(F)cc2ncccc2c1F)c1nnc2sc(-c3cnn(C)c3)nn12 [Compound 2, 5,7-difluoro-6-((R)-1-(6-(1-methyl-1H-pyrazol-4-yl)-[1,2,4]triazolo[3,4-b][1,3,4]thiadiazol-3-yl)ethyl)quinoline]	6150	surprisingly less active against PDE3 than their respective enantiomers	< 100	< 300
C[C@@H](c1c(F)cc2ncccc2c1F)c1nnc2sc(-c3cnn(C)c3)nn12 [Compound 2a]	150		< 100	< 300
